In brackets after ≈: the same amount, converted by molar mass.
What was measured:
[1] = test system: Escherichia coli; assay: Antimicrobial activity against Escherichia coli; assay type: functional
[2] = target: T1, Cell division protein FtsZ (Staphylococcus aureus) (UniProt P0A031); assay: Inhibition of Staphylococcus aureus FtsZ assessed as reduction in GTPase activity by coupled enzyme assay
T1 sequence (whole entry): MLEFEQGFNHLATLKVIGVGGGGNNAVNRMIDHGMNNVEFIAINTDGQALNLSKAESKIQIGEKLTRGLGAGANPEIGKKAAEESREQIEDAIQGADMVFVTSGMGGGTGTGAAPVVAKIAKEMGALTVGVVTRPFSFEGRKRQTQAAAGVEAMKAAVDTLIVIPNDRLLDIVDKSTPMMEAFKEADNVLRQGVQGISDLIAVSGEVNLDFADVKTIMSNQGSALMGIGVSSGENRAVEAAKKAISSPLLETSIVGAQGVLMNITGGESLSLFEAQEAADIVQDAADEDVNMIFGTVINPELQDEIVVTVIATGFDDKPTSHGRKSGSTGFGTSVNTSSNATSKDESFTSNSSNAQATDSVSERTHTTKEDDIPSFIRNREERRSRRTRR

[3] = test system: Staphylococcus aureus; assay: Antimicrobial activity against Staphylococcus aureus; assay type: functional
[4] = test system: Staphylococcus aureus; assay: Antimicrobial activity against methicillin resistant Staphylococcus aureus; assay type: functional
[5] = target: T2, Cell division protein FtsZ (Escherichia coli K-12) (UniProt P0A9A6); assay: Inhibition of Escherichia coli FtsZ assessed as reduction in GTPase activity by malachite green assay
T2 sequence (whole entry): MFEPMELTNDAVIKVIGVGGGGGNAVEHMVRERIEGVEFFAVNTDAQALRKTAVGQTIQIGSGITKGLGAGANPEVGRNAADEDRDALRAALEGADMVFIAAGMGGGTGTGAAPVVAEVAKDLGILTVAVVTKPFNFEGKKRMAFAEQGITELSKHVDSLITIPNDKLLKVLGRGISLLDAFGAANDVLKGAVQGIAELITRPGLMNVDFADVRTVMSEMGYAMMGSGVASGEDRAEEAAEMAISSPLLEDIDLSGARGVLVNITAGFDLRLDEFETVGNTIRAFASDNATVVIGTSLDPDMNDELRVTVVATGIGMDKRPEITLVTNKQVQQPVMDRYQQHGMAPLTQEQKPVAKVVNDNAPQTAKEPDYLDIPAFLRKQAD

[6] = test system: Mycolicibacterium smegmatis; assay: Antimicrobial activity against Mycobacterium smegmatis; assay type: functional
[7] = test system: Bacillus subtilis; assay: Antimicrobial activity against Bacillus subtilis; assay type: functional
[8] = target: T3, Cell division protein FtsZ (Bacillus subtilis) (UniProt A5Z1V5); assay: Inhibition of Bacillus subtilis FtsZ assessed as reduction in GTPase activity by malachite green assay
T3 sequence (whole entry): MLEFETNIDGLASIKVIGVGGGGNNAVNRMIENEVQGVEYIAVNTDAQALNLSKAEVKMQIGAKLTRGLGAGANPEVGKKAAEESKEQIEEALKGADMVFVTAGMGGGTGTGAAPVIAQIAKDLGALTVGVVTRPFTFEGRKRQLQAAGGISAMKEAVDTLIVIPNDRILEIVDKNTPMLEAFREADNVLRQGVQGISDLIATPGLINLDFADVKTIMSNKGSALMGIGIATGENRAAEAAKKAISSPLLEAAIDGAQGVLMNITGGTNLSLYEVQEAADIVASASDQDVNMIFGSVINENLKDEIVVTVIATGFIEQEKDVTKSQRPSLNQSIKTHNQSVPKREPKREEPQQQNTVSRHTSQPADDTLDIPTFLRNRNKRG

[9] = target: T2, Cell division protein FtsZ (Escherichia coli K-12); assay: Inhibition of Escherichia coli FtsZ assessed as reduction in polymerization
[10] = target: T4, Cell division protein FtsZ (Mycobacterium tuberculosis) (UniProt P9WN95); assay: Inhibition of Mycobacterium tuberculosis FtsZ assessed as reduction in GTPase activity by coupled enzyme assay
T4 sequence (whole entry): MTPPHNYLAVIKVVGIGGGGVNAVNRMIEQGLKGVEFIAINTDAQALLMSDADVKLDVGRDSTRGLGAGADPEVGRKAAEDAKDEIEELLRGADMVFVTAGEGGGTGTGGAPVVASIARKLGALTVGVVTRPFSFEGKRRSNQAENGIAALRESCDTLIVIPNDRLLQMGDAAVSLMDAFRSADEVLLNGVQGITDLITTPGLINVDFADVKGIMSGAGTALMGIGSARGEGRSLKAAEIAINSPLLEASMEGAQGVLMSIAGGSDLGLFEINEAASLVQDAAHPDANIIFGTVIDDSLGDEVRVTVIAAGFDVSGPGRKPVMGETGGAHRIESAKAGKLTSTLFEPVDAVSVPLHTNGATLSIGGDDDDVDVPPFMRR

[11] = target: T2, Cell division protein FtsZ (Escherichia coli K-12); assay: Inhibition of Escherichia coli FtsZ assessed as reduction in GTPase activity by coupled enzyme assay
[12] = target: T4, Cell division protein FtsZ (Mycobacterium tuberculosis); assay: Inhibition of Mycobacterium tuberculosis FtsZ assessed as reduction in GTPase activity by malachite green assay
[13] = target: T1, Cell division protein FtsZ (Staphylococcus aureus); assay: Activation of Staphylococcus aureus FtsZ assessed as increase in GTPase activity by malachite green assay
[14] = target: T2, Cell division protein FtsZ (Escherichia coli K-12)
Description: Binding affinity to Escherichia coli FtsZ

[15] = target: T5, Cell division protein FtsZ (Escherichia coli K-12, UniProt P0A9A6); assay: Displacement of bis-ANS from Escherichia coli FtsZ
T5 sequence (P0A9A6 whole entry): T2 sequence (whole entry)

[16] = Inhibition of ZipA-FtsZ protein-protein interaction (unknown origin) assessed as reduction in binding of fluorescein-labeled analogue of FtsZ C-terminal residues (367 to 383 residues) to C-terminal domain of ZipA (185 to 328 residues) by fluorescence polarization assay
[17] = test system: Enterococcus faecalis; assay: Antimicrobial activity against Enterococcus faecalis; assay type: functional

## CCC(CC)c1cc([C@H]2CN3CC[C@H]2C[C@@H]3CN)nc(-c2ccncc2)n1
[1]
  MIC: 13.1 µg/mL (≈ 35.8 µM)
[2]
  INH: 37.5 µM
[3]
  MIC: 6.53 µg/mL (≈ 17.9 µM)

## Oc1cc(O)c2c(c1)C/C(Cl)=C\Cc1cc(c(Cl)cc1O)Oc1c(O)cc(cc1O)C/C(Cl)=C\Cc1cc(c(Cl)cc1O)O2
[4]
  INH: 1.5 µg/mL
[5]
  INH: 9.88 µM
[3]
  MIC: 1.8 µg/mL (≈ 2.65 µM)

## CC(=O)O[C@@]12CO[C@@H]1C[C@H](O)[C@@]1(C)C(=O)[C@H](O)C3=C(C)[C@@H](OC(=O)/C=C/c4ccc5ccccc5c4)C[C@@](O)([C@@H](OC(=O)c4ccccc4)[C@H]21)C3(C)C
[6]
  INH: 60 µM
[7]
  INH: 38 µM
[8]
  INH: 35 µM

## CCN(CC)CCNc1nc(/C=C/c2ccc(Cl)cc2)nc2cc3ccccc3cc12
[9]
  IC50: 15 µM
[10]
  INH: 50 µM
[4]
  INH: 4.31 µg/mL
[11]
  IC50: 15 µM
[12]
  INH: 50 µM
[7]
  MIC: 1.08 µg/mL (≈ 2.51 µM)
[1]
  MIC: >34 µg/mL

## NC(=O)c1c(F)ccc(OCc2nc3cc(Cl)cnc3s2)c1F
[13]
  Activity: 0.1 µM
[3]
  MIC: 1 µg/mL (≈ 2.81 µM)

## O=C/C=C/c1ccccc1 [CINNAMALDEHYDE]
[7]
  INH: 500 mg/L
[14]
  Ka: 1 µM
[1]
  INH: 1000 mg/L
[5]
  INH: 5.81 µM
[3]
  INH: 250 mg/L

## COc1ccc2cc3[n+](cc2c1OC)CCc1cc2c(cc1-3)OCO2.[Cl-] [BERBERINE CHLORIDE]
[9]
  IC50: 10 µM
[7]
  MIC: 100 µg/mL
[1]
  INH: >400 µM
[5]
  INH: 16 µM
[15]
  Kd: 0.023 µM
[3]
  MIC: 32 to 128 µg/mL

## O=C(O)c1ccc(-c2cccc(-c3c(-c4ccccc4)[nH]c4ccccc34)c2)cc1
[7]
  MIC: 4 µg/mL (≈ 10.3 µM)
[16]
  IC50: 192 µM
[3]
  MIC: 4 to 8 µg/mL
[17]
  MIC: 8 to 16 µg/mL

From ChEMBL document CHEMBL4428024, “Targeting the Bacterial Division Protein FtsZ” (J Med Chem, 2016)
